# In patent publication US5380715A, “Ap4 A as a hypotensive agent” (Fujirebio Inc., priority 1992, dated 1995):
# pIC50: −log10 of the molar value. Entries after “also recorded” stand apart in the source; their conditions may differ. Where two headings read alike, the source gives them in different places.
# What was measured:
# rats [1] = test: Effects on cerebral blood flow, blood pressure and heart rate in anesthetized rats; type: in vivo, male SD rats; conditions: rat
# Procedure: Male SD rats (Charles River Japan Inc.) were anesthetized with intravenous urethane (0.5 g/kg)+α-chloralose (80 mg/kg).
# A femoral artery was catheterized to monitor the blood pressure and heart rate, while a femoral vein was catheterized for the aministration of each of the test drugs.
# The head of each rat was fixed to a brain position fixing device and a hole was made at a top portion of the cranium. A laser blood flow probe was mounted on the cranium so as to touch the surface of the cerebral cortex through the hole, whereby the cerebral blood flow thereof was measured. A predetermined amount of Ap4A was applied by bolus injection and by infusion.
# isolated rat heart = test: Protective effect on deoxygenation-induced cardiac damage (Langendorff heart); design: species or system male SD rats; conditions: 1×10^-4 M, 33 min global ischemia; words
# Procedure: The protective effect of Ap4A against ischemia by use of a Langendorff heart (Aronson, CE. and Serlick, ER. Toxicol. Appl. Pharmac. 38, 479-488 (1976)) was tested.
# Deoxygenation-induced cardiac damage according to the method of Aronson & Serlich (Toxical. appl. Parmac. 38, 479-488, 1976) with slight modifications. Male SD rats (Charles River Japan Inc.) weighing 320 to 390 g were anesthetized with ether, and heart quickly isolated. The isolated rat heart was mounted and perfused with Krebs-Henselite solution (118 mM NaCl, 4.7 mM KCl, 2.5 mM CaCl2, 1.2 mM MgSO4, 1.2 mM KH2 PO4, 25 mM NaHCO3 and 10 mM glucose) bubbled with 95% O2 +5% CO2 at a flow rates of 14 ml/min. at 37° C. The myocardial function was monitored by the left ventricular pressure (L.V.P.), differential values of L.V.P. (dp/dt), heart rate (H.R.) and perfused pressure (P.P.) through a branch of an aortic canula mounted on the heart. After equilibrate for 40 min., global ischemia was produced by stopping the perfusing solution and the heart was incubated for 33 min. in 50 ml Krebs-Henselite bubble with N2 gas (control). 33 min. later, the buffer solution was removed. The perfusion was re-started, and the myocardial function was measured. The heart was incubated in Krebs-Henselite solution containing Ap4A 1×10^-4 M during global ischemia.
# rats [2] = test: Gradual hypotension during anesthesia in rats; type: in vivo, male SD rats; conditions: rat
# Procedure: Male SD rats (Charles River Japan Inc.) were anesthetized with intravenous thiopental 50 mg/kg as a bolus, followed by 1% enflurane in air.
# A femoral artery was catheterized to monitor the blood pressure and heart rate, while a femoral vein was catheterized for the administration of each of the test drugs.
# The control values were obtained before the administration of each test drug. Each test drug was then administered using a syringe in a dose-dependent manner for 15 minutes. The percentage (%) of the decrease of blood pressure was determined when stabilized. Changes in heart rate (H.R.) at the administration of each test drug were measured. Furthermore,the recovery of mean blood pressure after intravenous infusion of each test drug was also determined from the decrease in heart rate and the blood pressure at a maximum dose of each test drug.
# [3] = system: rabbit mesenteric arteries; conditions: words; cited from earlier work
# blood pressure = test: Gradual hypotension under halothane or urethane + α-chloralose anesthesia; type: in vivo; conditions: halothane anesthesia; urethane (0.5 g/kg) + α-chloralose (80 mg/kg) anesthesia; words
# [4] = system: rabbit platelet aggregation; test: Inhibitory effect on rabbit platelet aggregation; type: cell-based; conditions: for pIC50: Oryctolagus cuniculus, Platelet
# Procedure: Fresh blood samples were collected from male Japanese white rabbits weighing 2-3 kg. Blood was anticoagulated with citric acid (1 ml 3.8% citric acid solution +9 ml blood). These samples were centrifuged at room temperature for 20 min at 200×g to obtained platelet-rich plasma (PRP). Furthermore, the supernatant liquid was centrifuged for 10 min at 1500×g to obtained platelet-poor plasma (PPP). Aggregation of platelests was measured photometrically in a Nihon Kohden hema tracer equipped with a mechanical stirring device and with a chart record. At this time, the chart recorder was calibrated as follows: the light transmission obtained with PPP was set as 100% transmission and the optical density of PRP was taken as 0% transmission. Maximal aggregation, i.e. the maximal change in optical density of the primary wave calculated in percent light transmission. From the study, it was determined that ADP, Ap3A, PAF(platelet activating factor) and collagen induced maximal aggregations at a concentration of 1×10^-5 M, 1×10^-4 M, 1.9×10^-7 M and 5 μg/kg, respectively. In the following studies, these aggregating agents were used at maximal dose. The effect of Ap4A on platelet aggregation by ADP and Ap3A were tested. In this time, Ap4A was pretreated for 1 or 10 min before the addition of aggregating agents. Also, after the platelet aggregation was induced by addition of ADP, PAF or collagen to PRP, the platelet aggregate dispersing effect of Ap4A was tested.
# [5] = enflurane, infusion 1 μg/kg/min
# [6] = enflurane, infusion 3 μg/kg/min
# [7] = enflurane, infusion 10 μg/kg/min
# [8] = enflurane, infusion 30 μg/kg/min
# [9] = enflurane, infusion 100 μg/kg/min
# [10] = enflurane, infusion 300 μg/kg/min
# [11] = enflurane, infusion 1000 μg/kg/min
# [12] = enflurane, infusion 3000 μg/kg/min
compound,measurement,setting,value
"Nc1ncnc2c1ncn2[C@@H]1O[C@H](COP(=O)(O)OP(=O)(O)OP(=O)(O)OP(=O)(O)OC[C@H]2O[C@@H](n3cnc4c(N)ncnc43)[C@H](O)[C@@H]2O)[C@@H](O)[C@H]1O [Ap4A, diadenosine 5',5'""-p^1,p^4 -tetraphosphate]",B.P. Δ%,rats [1]; bolus injection 0.1 μg/kg,0%
same,C.B.F. Δ%,rats [1]; bolus injection 0.1 μg/kg,2.7%
same,H.R. Δ%,rats [1]; bolus injection 0.1 μg/kg,4.0%
same,B.P. Δ%,rats [1]; bolus injection 0.3 μg/kg,0%
same,C.B.F. Δ%,rats [1]; bolus injection 0.3 μg/kg,7.9%
same,H.R. Δ%,rats [1]; bolus injection 0.3 μg/kg,-7.0%
same,B.P. Δ%,rats [1]; bolus injection 1 μg/kg,5.0 ± 2.9%
same,C.B.F. Δ%,rats [1]; bolus injection 1 μg/kg,9.3 ± 2.5%
same,H.R. Δ%,rats [1]; bolus injection 1 μg/kg,10.3 ± 10.1%
same,B.P. Δ%,rats [1]; bolus injection 3 μg/kg,-6.2 ± 5.0%
same,C.B.F. Δ%,rats [1]; bolus injection 3 μg/kg,10.0 ± 2.0%
same,H.R. Δ%,rats [1]; bolus injection 3 μg/kg,4.6 ± 3.4%
same,B.P. Δ%,rats [1]; bolus injection 10 μg/kg,-9.9 ± 4.6%
same,C.B.F. Δ%,rats [1]; bolus injection 10 μg/kg,21.7 ± 6.0%
same,H.R. Δ%,rats [1]; bolus injection 10 μg/kg,3.2 ± 2.0%
same,B.P. Δ%,rats [1]; bolus injection 30 μg/kg,-23.2 ± 3.5%
same,C.B.F. Δ%,rats [1]; bolus injection 30 μg/kg,16.8 ± 3.5%
same,H.R. Δ%,rats [1]; bolus injection 30 μg/kg,6.4 ± 1.2%
same,B.P. Δ%,rats [1]; bolus injection 100 μg/kg,-34.4 ± 2.5%
same,C.B.F. Δ%,rats [1]; bolus injection 100 μg/kg,15.8 ± 4.0%
same,H.R. Δ%,rats [1]; bolus injection 100 μg/kg,7.4 ± 3.5%
same,B.P. Δ%,rats [1]; bolus injection 300 μg/kg,-40.5 ± 5.2%
same,C.B.F. Δ%,rats [1]; bolus injection 300 μg/kg,9.8 ± 4.0%
same,H.R. Δ%,rats [1]; bolus injection 300 μg/kg,10.9 ± 4.5%
same,B.P. Δ%,rats [1]; bolus injection 1 mg/kg,-50.4 ± 1.4%
same,C.B.F. Δ%,rats [1]; bolus injection 1 mg/kg,8.5 ± 3.4%
same,H.R. Δ%,rats [1]; bolus injection 1 mg/kg,7.4 ± 6.0%
same,B.P. Δ%,rats [1]; bolus injection 3 mg/kg,-54.0 ± 2.5%
same,C.B.F. Δ%,rats [1]; bolus injection 3 mg/kg,23.7 ± 9.3%
same,H.R. Δ%,rats [1]; bolus injection 3 mg/kg,6.2 ± 21.1%
same,B.P. Δ%,rats [1]; bolus injection 10 mg/kg,-63.5 ± 5.6%
same,C.B.F. Δ%,rats [1]; bolus injection 10 mg/kg,46.3 ± 11.5%
same,H.R. Δ%,rats [1]; bolus injection 10 mg/kg,-78.8 ± 2.7%
same,B.P. Δ%,rats [1]; bolus injection 30 mg/kg,-60.7 ± 7.0%
same,C.B.F. Δ%,rats [1]; bolus injection 30 mg/kg,34.0 ± 16.9%
same,cerebral blood flow,"rats [1]; bolus injection, result in words",improved by bolus injection of Ap4A
same,increase in C.B.F.,"rats [1]; bolus, when about 20-40% fall in blood pressure",10-20%
same,cerebral blood flow,"rats [1]; continuous administration, result in words (FIG. 2)",The same effects were also observed in the continuous administration of Ap4A; also recorded: Cerebral blood flow was increased during continuous administration of Ap4A
same,"prevention of cardiac damage (loss of L.V.P., dp/dt and H.R.)",isolated rat heart,"significantly prevented cardiac damage (loss of L.V.P., dp/dt and H.R.) induced by deoxygenation; also recorded: the above-mentioned impairment in the untreated Langendorff heart was found to be prevented"
same,administration that gradually decreased blood pressure,rats [2]; enflurane,≥ 10 µg/kg/min
same,fall in blood pressure,"rats [2]; enflurane, 300 μg/kg/min",about 40%
same,fall in blood pressure,"rats [2]; enflurane, 1000 μg/kg/min or more",≥ 60%
same,Blood Pressure (Δ%),rats [2]; [5],0%
same,Heart Rate (Δ%),rats [2]; [5],0%
same,Blood Pressure (Δ%),rats [2]; [6],0%
same,Heart Rate (Δ%),rats [2]; [6],0%
same,Blood Pressure (Δ%),rats [2]; [7],-4.7 ± 0.6%
same,Heart Rate (Δ%),rats [2]; [7],1.3 ± 0.6%
same,Blood Pressure (Δ%),rats [2]; [8],-10.2 ± 1.1%
same,Heart Rate (Δ%),rats [2]; [8],2.7 ± 0.8%
same,Blood Pressure (Δ%),rats [2]; [9],-22.9 ± 1.2%
same,Heart Rate (Δ%),rats [2]; [9],2.4 ± 1.0%
same,Blood Pressure (Δ%),rats [2]; [10],-43.5 ± 2.2%
same,Heart Rate (Δ%),rats [2]; [10],-6.6 ± 1.2%
same,Blood Pressure (Δ%),rats [2]; [11],-58.6 ± 1.8%
same,Heart Rate (Δ%),rats [2]; [11],-15.9 ± 1.9%
same,Blood Pressure (Δ%),rats [2]; [12],-65.8 ± 1.2%
same,Heart Rate (Δ%),rats [2]; [12],-24.9 ± 2.4%
same,decrease of heart rate,"rats [2]; enflurane, result in words",A significant decrease of heart rate was observed at about 60% fall in blood pressure
same,stability of hypotensive effect at each dose,rats [2]; result in words,did not significantly change the blood pressure attained by each dose
same,vasodilating effect,[3],a vasodilating effect of rabbit mesenteric arteries
same,gradual hypotensive effect,blood pressure,almost the same gradual hypotensive effect
same,time to submaximal/maximum anti-platelet aggregating effect,[4],≤ 1 min
same,inhibition of platelet aggregation,"[4]; ADP- and Ap3A-induced, result in words","Both ADP- and Ap3A-induced platelet aggregations were inhibited; also recorded: inhibits ADP-induced and Ap3A (diadenosine 5', 5'""-p^1,p^4 -triphosphate)-induced platelet-aggregation reactions"
same,pIC50,"[4]; read-out: Ap4A IC50, ADP (1 × 10^-5 M) induced, 1 min. pretreatment",3.69
same,pIC50,"[4]; read-out: Ap4A IC50, ADP (1 × 10^-5 M) induced, 10 min. pretreatment",4.38
same,pIC50,"[4]; read-out: Ap4A IC50, Ap3A (1 × 10^-4 M) induced, 1 min. pretreatment",5.04
same,pIC50,"[4]; read-out: Ap4A IC50, Ap3A (1 × 10^-4 M) induced, 10 min. pretreatment",4.30
same,time to substantially maximum inhibitory effect,[4]; result in words,substantially maximum effect is obtained within one minute
